Test results reported in ChEMBL document CHEMBL5329151, “Novel pirfenidone derivatives: synthesis and biological evaluation” (2023).
Activity calls are given as the source filed them. No cut-off for these calls is given here.

Tests used:
3T3-L1 [1] = test: Inhibition of fibronectin secretion in mouse 3T3-L1 cells assessed as reduction in accumulation of fibronectin in extracellular matrix incubated for 48 hrs by ELISA (reference value: 1389.10 +/- 9.19 ng/ml); format: functional, cell-based; details: dose 0.5-2 mmol/L
3T3-L1 [2] = test: Inhibition of cell growth in mouse 3T3-L1 cells after 24 to 48 hrs by MTT assay; format: functional, cell-based; details: time 24-48 hrs
3T3-L1 [3] = test: Inhibition of cell growth in mouse 3T3-L1 cells at 0.5 to 2 mmol/L by MTT assay; format: functional, cell-based; details: dose 0.5-2 mmol/L, time 24-48 hrs, TDE = time-dependent effect
3T3-L1 [4] = test: Inhibition of cell growth in mouse 3T3-L1 cells at […] after 24 to 48 hrs by MTT assay; format: functional; details: dose 2 mmol/L, time 24-48 hrs

Row | Structure (SMILES) | inhibition (3T3-L1 [1]) | inhibition (3T3-L1 [2]) | inhibition (3T3-L1 [3]) | inhibition at 2000 µM (3T3-L1 [4]) [%]
1 | O=c1ccccn1-c1ccc(C2=NC3CCCCC3N2)cc1 (stereo not drawn) | Active | Dose-Dependent Effect | Tde | 95.4
2 | O=c1ccccn1-c1ccc(/C=N\Nc2ccccc2)cc1 | Active | Dose-Dependent Effect | Tde | –
3 | O=c1ccccn1-c1ccc(C2=NCCCN2)cc1 | Active | Dose-Dependent Effect | Tde | –
4 | O=c1ccccn1-c1ccc(C2=NCCN2)cc1 | Active | Dose-Dependent Effect | Tde | –
5 | N/N=C/c1ccc(-n2ccccc2=O)cc1 | Active | Dose-Dependent Effect | Tde | –
6 | Cc1ccc(=O)n(-c2ccccc2)c1 | – | Dose-Dependent Effect | – | –
7 | NC(=O)N/N=C\c1ccc(-n2ccccc2=O)cc1 | Active | Dose-Dependent Effect | Tde | –
8 | NC(=S)N/N=C\c1ccc(-n2ccccc2=O)cc1 | Active | Dose-Dependent Effect | Tde | –
